# Data from ChEMBL document CHEMBL3881525, “Analogs of dehydrophenylahistins and their therapeutic use” (2007).
# Active and inactive are the calls of the source. The rule behind the calls is not given here.
# Tests used:
# [1] = Cytotoxicity against mouse P388 cells assessed as reduction in cell viability measured after 48 hrs by resazurin dye-based fluorometric analysis; assay type: functional; conditions: P388, 48 h
# [2] = Antitumor activity against human HT-29 cells xenografted in nude mouse assessed as tumor growth inhibition at 100 mg/kg, ip administered thrice weekly relative to control; assay type: functional; conditions: HT-29, ip, read-out: TGI
# [3] = Cytotoxicity against human NCI-H292 cells assessed as reduction in cell viability measured after 48 hrs by resazurin dye-based fluorometric analysis; assay type: functional; conditions: NCI-H292, 48 h
# HL-60 = test: Ratio of EC50 for human mitoxantrone-sensitive HL60 cells to EC50 for human mitoxantrone-resistant HL60/MX2 cells; assay type: functional
# [4] = Antiproliferative activity against human mitoxantrone-resistant HL60/MX2 cells; assay type: functional, cell-based; conditions: HL-60
# MES-SA = test: Ratio of EC50 for taxol-resistant human MES-SA/DX5 cells expressing MDR1 mRNA and P-gp to EC50 for taxol-sensitive human MES-SA cells; assay type: functional
# [5] = Antiproliferative activity against taxol-resistant human MES-SA/Dx5 cells expressing MDR1 mRNA and P-gp; assay type: functional, cell-based
# [6] = Cytotoxicity against human MDA-MB-231 cells assessed as reduction in cell viability measured after 48 hrs by resazurin dye-based fluorometric analysis; assay type: functional; conditions: MDA-MB-231, 48 h
# [7] = Cytotoxicity against mouse B16F10 cells assessed as reduction in cell viability measured after 48 hrs by resazurin dye-based fluorometric analysis; assay type: functional; conditions: B16-F10, 48 h
# Tubulin (Homo sapiens) [8] = biological target: T1, Tubulin (Homo sapiens) (UniProt P68371+Q9H4B7+P0DPH7+P68366+Q13509+Q71U36+P04350+Q3ZCM7+P07437+P68363+Q9BQE3+Q6PEY2+Q13885+Q9BVA1+Q9BUF5); test: Induction of microtubule depolymerization in HUVEC at 1.5 to 5 uM by turbidity spectroscopic analysis; assay type: cell-based
# Tubulin (Homo sapiens) [9] = biological target: T1, Tubulin (Homo sapiens); test: Induction of microtubule depolymerization in HUVEC at 20 nM measured after 30 mins by DAPI-staining based immunofluorescence analysis; assay type: cell-based
# [10] = Cytotoxicity against human HT-29 cells assessed as reduction in cell viability measured after 48 hrs by resazurin dye-based fluorometric analysis; assay type: functional; conditions: Homo sapiens, HT-29, 48 h
# [11] = Cytotoxicity against human PC3 cells assessed as reduction in cell viability measured after 48 hrs by resazurin dye-based fluorometric analysis; assay type: functional; conditions: PC-3, 48 h
# [12] = biological target: Tubulin (Candida albicans) (UniProt P87066+P10875+O93807); test: Inhibition of microtubule formation in Candida albicans; assay type: protein-complex assay
# Sequence of Tubulin (Candida albicans) (O93807 whole entry, looked up): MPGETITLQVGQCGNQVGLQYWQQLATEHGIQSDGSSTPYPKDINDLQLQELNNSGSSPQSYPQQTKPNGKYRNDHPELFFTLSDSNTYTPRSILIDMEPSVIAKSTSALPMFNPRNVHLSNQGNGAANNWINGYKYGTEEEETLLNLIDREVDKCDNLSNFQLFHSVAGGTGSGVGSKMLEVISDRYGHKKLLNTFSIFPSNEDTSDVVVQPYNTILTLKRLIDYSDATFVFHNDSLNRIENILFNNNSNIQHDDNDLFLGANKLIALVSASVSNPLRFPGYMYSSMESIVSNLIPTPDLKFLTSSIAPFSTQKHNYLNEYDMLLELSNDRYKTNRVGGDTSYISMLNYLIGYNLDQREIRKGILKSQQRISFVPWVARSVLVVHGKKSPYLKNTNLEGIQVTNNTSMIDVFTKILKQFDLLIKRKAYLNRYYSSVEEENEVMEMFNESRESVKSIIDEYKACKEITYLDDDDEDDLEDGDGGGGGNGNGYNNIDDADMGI
# Sequence of Tubulin (Candida albicans) (P10875 whole entry, looked up): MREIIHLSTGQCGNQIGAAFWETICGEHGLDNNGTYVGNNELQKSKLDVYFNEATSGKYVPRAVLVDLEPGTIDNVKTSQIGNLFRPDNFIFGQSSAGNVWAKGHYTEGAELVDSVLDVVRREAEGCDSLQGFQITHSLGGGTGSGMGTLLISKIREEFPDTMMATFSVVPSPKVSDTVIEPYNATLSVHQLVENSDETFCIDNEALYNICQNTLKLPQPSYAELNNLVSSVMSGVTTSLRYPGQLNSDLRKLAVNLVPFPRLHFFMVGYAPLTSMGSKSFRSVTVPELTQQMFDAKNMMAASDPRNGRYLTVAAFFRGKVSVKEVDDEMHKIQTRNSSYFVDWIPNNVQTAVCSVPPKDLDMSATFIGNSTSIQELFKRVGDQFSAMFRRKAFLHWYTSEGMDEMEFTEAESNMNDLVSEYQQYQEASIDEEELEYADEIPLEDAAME
# Sequence of Tubulin (Candida albicans) (P87066 whole entry, looked up): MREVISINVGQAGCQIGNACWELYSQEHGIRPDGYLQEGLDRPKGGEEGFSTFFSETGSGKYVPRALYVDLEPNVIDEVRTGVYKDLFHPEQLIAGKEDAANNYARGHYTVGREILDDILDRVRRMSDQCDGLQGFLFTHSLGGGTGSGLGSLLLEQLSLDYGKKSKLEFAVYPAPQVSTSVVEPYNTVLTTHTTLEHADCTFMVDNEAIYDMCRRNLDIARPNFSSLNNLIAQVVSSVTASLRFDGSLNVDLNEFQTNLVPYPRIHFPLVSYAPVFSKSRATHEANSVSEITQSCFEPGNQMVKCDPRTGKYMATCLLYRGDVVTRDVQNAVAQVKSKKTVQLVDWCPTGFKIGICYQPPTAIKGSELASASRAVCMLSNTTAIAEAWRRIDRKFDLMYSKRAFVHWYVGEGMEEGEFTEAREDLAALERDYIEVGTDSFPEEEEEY
# Nakaseomyces glabratus = test: Fungicidal activity against Candida glabrata measured after 48 hrs by broth dilution method; assay type: functional
# [13] = Antifungal activity against Trichophyton rubrum isolate 1 measured after 48 hrs by broth dilution method; assay type: functional
# [14] = Antifungal activity against Trichophyton mentagrophytes isolate 2 measured after 48 hrs by broth dilution method; assay type: functional
# [15] = Antifungal activity against Trichophyton mentagrophytes isolate 1 measured after 48 hrs by broth dilution method; assay type: functional
# Trichophyton rubrum [16] = test: Fungicidal activity against Trichophyton rubrum isolate 1 measured after 48 hrs by broth dilution method; assay type: functional; conditions: isolate 1, 48 h
# [17] = system: Trichophyton mentagrophytes; test: Fungicidal activity against Trichophyton mentagrophytes isolate 1 measured after 48 hrs by broth dilution method; assay type: functional; conditions: isolate 1, 48 h
# [18] = Antifungal activity against Epidermophyton floccosum isolate 1 measured after 48 hrs by broth dilution method; assay type: functional
# Trichophyton rubrum [19] = test: Fungicidal activity against Trichophyton rubrum isolate 2 measured after 48 hrs by broth dilution method; assay type: functional; conditions: isolate 2, 48 h
# [20] = Antifungal activity against Trichophyton rubrum isolate 2 measured after 48 hrs by broth dilution method; assay type: functional
# [21] = Antifungal activity against Epidermophyton floccosum isolate 2 measured after 48 hrs by broth dilution method; assay type: functional
# Aspergillus fumigatus [22] = test: Fungicidal activity against Aspergillus fumigatus isolate 2 measured after 48 hrs by broth dilution method; assay type: functional; conditions: isolate 2, 48 h
# Candida albicans [23] = test: Antifungal activity against Candida albicans 90028 measured after 48 hrs by broth dilution method; assay type: functional; conditions: Candida albicans, 90028, 48 h
# [24] = Antifungal activity against Candida glabrata measured after 48 hrs by broth dilution method; assay type: functional; conditions: Nakaseomyces glabratus
# Aspergillus fumigatus [25] = test: Antifungal activity against Aspergillus fumigatus isolate 1 measured after 48 hrs by broth dilution method; assay type: functional; conditions: isolate 1, 48 h
# Aspergillus fumigatus [26] = test: Antifungal activity against Aspergillus fumigatus isolate 2 measured after 48 hrs by broth dilution method; assay type: functional; conditions: isolate 2, 48 h
# Candida albicans [27] = test: Antifungal activity against Candida albicans ATCC 10231 measured after 48 hrs by broth dilution method; assay type: functional; conditions: ATCC 10231, 48 h
# HeLa [28] = test: Effect on cell cycle progression in human HeLa cells assessed as increase in 4N cells at 40 nM; assay type: functional, cell-based
# HeLa [29] = test: Effect on cell cycle progression in human HeLa cells assessed as reduction in 2N cells at 40 nM; assay type: functional, cell-based
smiles,measurement,setting,value
NS(=O)(=O)c1ccc(S(=O)(=O)Nc2cccc3c(Cl)c[nH]c23)cc1,IC50,[1],0.15 µg/mL
CCc1c2c(nc3ccc(OC(=O)N4CCC(N5CCCCC5)CC4)cc13)-c1cc3c(c(=O)n1C2)COC(=O)[C@]3(O)CC [IRINOTECAN],inhibition in vivo at 100 mg/kg,[2],32.7 to 39%
CC(C)(C)c1ocnc1/C=c1\[nH]c(=O)/c(=C/c2cc(F)cc(F)c2F)[nH]c1=O,EC50,[3],16 nM
same,Ratio EC50,HL-60,0.7
same,EC50,[4],19 nM
same,Ratio EC50,MES-SA,1
same,IC50,[5],13 nM
same,EC50,[6],52 nM
same,EC50,[7],> 2000 nM
same,Activity,Tubulin (Homo sapiens) [8],Active
same,Activity,Tubulin (Homo sapiens) [9],Active
same,EC50,[10],11.4 to 17 nM
same,EC50,[11],21 nM
CC(C)OC(=O)Nc1cccc(Cl)c1,inhibition,[12],Active
CCCCNC(=O)n1c(NC(=O)OC)nc2ccccc21 [BENOMYL],MFC,Nakaseomyces glabratus,> 512 µg/mL
CC(C)(C)c1[nH]cnc1/C=C1\NC(=O)[C@H](Cc2ccccc2)NC1=O,MIC,[13],< 0.03 µg/mL
same,MIC,[14],> 16 µg/mL
same,MIC,[15],4 µg/mL
same,MFC,Trichophyton rubrum [16],0.125 µg/mL
same,MFC,[17],> 16 µg/mL
same,MIC,[18],> 16 µg/mL
same,MFC,Trichophyton rubrum [19],< 0.03 µg/mL
same,MIC,[20],< 0.03 µg/mL
same,MIC,[21],> 16 µg/mL
COc1cc(/C=c2\[nH]c(=O)/c(=C/c3nc[nH]c3C(C)(C)C)[nH]c2=O)cc(OC)c1OC,MIC,[13],0.06 µg/mL
same,MIC,[14],> 16 µg/mL
same,MIC,[15],1 µg/mL
same,MFC,Aspergillus fumigatus [22],> 16 µg/mL
same,MFC,Trichophyton rubrum [16],> 16 µg/mL
same,MIC,Candida albicans [23],> 32 µg/mL
same,MFC,[17],> 16 µg/mL
same,MIC,[24],> 32 µg/mL
same,MIC,Aspergillus fumigatus [25],> 16 µg/mL
same,MIC,[18],> 16 µg/mL
same,MIC,Aspergillus fumigatus [26],0.06 µg/mL
same,MFC,Trichophyton rubrum [19],< 0.03 µg/mL
same,MIC,[20],< 0.03 µg/mL
same,EC50,[10],819 to 2000 nM
same,MIC,Candida albicans [27],> 32 µg/mL
same,MIC,[21],> 16 µg/mL
COC(=O)Nc1nc2cc(C(=O)c3cccs3)ccc2[nH]1,inhibition,[12],Active
same,Activity,HeLa [28],Active
same,Activity,HeLa [29],Active
